Like-named read-outs stand apart in the source and are kept apart here.
What was measured:
flavivirus = experiment: Difference in concentrations for exhibiting cell toxicity and drug efficacy (therapeutic window)
Source text: As one of action mechanisms of the anti-dengue virus activity of lucidone, an increase in HO-1 in cells is known.

[1] = tested on: dengue virus type-4 TVP360 strain (DENV4); experiment: Inhibitory effect on dengue virus type-4 replication in Vero cells; type: cell-based
Protocol: (§1) (1) One day before infection (Day 0), Vero cells were seeded in a 24-well plate and incubated at 37° C. and 5% CO2. A culture solution was MEM+10% fetal bovine serum+10 mM non-essential amino acid+1000 U/ml penicillin+100 μg/ml streptomycin. In an experiment in which the treatment with the agent was performed before infection, the agent to be examined was added to the culture solution at this point. In all experiments, 5-aminolevulinic acid hydrochloride was used as 5-ALA, sodium ferrous citrate (SFC) was used as an iron-containing compound, 300 μM ribavirin or lucidone of various concentrations was used as a positive control, and water was used as a negative control. […] After the viruses were adsorbed to the cells for 1 hour, the cells were rinsed with phosphate-buffered saline (PBS) to completely remove the inoculation liquid. A maintenance culture solution (MEM+1% fetal bovine serum+10 mM non-essential amino acid+1000 U/ml penicillin+100 μg/ml streptomycin+1 mM HEPES) in a volume of 1 ml was added to the plate, and the cells were cultured at 37° C. and 5% CO2. In an experiment in which the agent was added concurrently with infection, the agent to be examined was added to the maintenance culture solution at this point. (3) After 24 hours (Day 2), the culture solution was recovered from the plate and a fresh maintenance culture solution in a volume of 1 ml was added to the plate, and the cells were cultured at 37° C. and 5% CO2. In an experiment in which the agent was added after infection, the agent to be examined was added at predetermined time points after infection. The recovered culture solution was subjected to centrifugation at 3000 rpm for 5 minutes and the resulting supernatant was frozen and stored. (4) Thereafter, recovering and supplying of the culture solution was repeated every 24 hours. It is of note that the infection experiments were performed using 2 wells for all conditions.
(§2) (1) One day before the experiment, Vero cells were inoculated in a 24-well plate and incubated at 37° C. and 5% CO2. (2) Samples for titer measurement were thawed and ten-fold serial dilutions of the samples were prepared using the maintenance culture solution. (3) The culture solution was removed from the plate thus prepared, and the serial dilutions prepared in procedure (2) were each inoculated in a volume of 200 μl. After adsorption for 1 hour, the inoculation liquid was removed from the plate, and 1% methyl cellulose (MEM+1% methyl cellulose+1% fetal bovine serum) in a volume of 1 ml was added to the plate. […] The crystal violet solution was removed from the plate, and, after rinsing with water and drying, the number of plaques was counted. The viral titer in the culture solution was calculated based on the number of plaques. […]

[2] = tested on: Japanese encephalitis virus Nakayama strain (JEV Nakayama); experiment: Inhibitory effect on Japanese encephalitis virus replication in Vero cells (progeny virus titer by plaque assay); type: cell-based
[3] = tested on: dengue virus type-1 Mochizuki strain (DENV1); experiment: Inhibitory effect on dengue virus type-1 replication in Vero cells; type: cell-based
Protocol: as §1, with “(4) Thereafter, recovering and supplying of the culture solution was repeated every 24 hours. It is of note that the infection experiments were performed using 2 wells for all conditions.” left out
(1) One day before the experiment, Vero cells were inoculated in a 24-well plate and incubated at 37° C. and 5% CO2. […] The crystal violet solution was removed from the plate, and, after rinsing with water and drying, the number of plaques was counted. The viral titer in the culture solution was calculated based on the number of plaques. […]

[4] = tested on: dengue virus type-3 CH53489 strain (DENV3); experiment: Inhibitory effect on dengue virus type-3 replication in Vero cells; type: cell-based
Protocol: as §1, §2

heme oxygenase-1 (HO-1) = conditions: Non-Patent Literatures 11, 13, 14, 15; cited from earlier work
[5] = MTT assay, cell toxicity in non-infected cells; type: cell-based; conditions: African green monkey, Vero cells (non-infected); non-infected cells; treatment for 7 days; read-out: CC50 (concentration at which cell toxicity is caused to 50% of cells)
Protocol: (§3) (1) One day before the experiment, Vero cells were inoculated in a 96-well plate and incubated at 37° C. and 5% CO2. (2) Two-fold serial dilutions of 5-ALA were prepared (˜0.8 mM) using the maintenance culture solution (MEM+1% fetal bovine serum+10 mM non-essential amino acid+1000 U/ml penicillin+100 μg/ml streptomycin+1 mM HEPES). Water was used as a negative control. Two-fold serial dilutions of lucidone were also prepared (˜160 μM) in the same manner. (3) The culture solution was removed from the plate thus prepared, and the 5-ALA solution or the lucidone solution prepared in (2) was added to the plate in a volume of 100 μl per well. Three wells were used for each condition. (4) The old culture solution was removed from the plate every 24 hours, and the fresh 5-ALA solution or lucidone solution was added to the plate, followed by culturing. (5) The cells were cultured with the 5-ALA solution for 2, 4, or 7 days or with the lucidone solution for 7 days, and then rinsed with PBS twice. An MTT solution in a volume of 100 μl was added to the cells, and the cells were cultured at 37° C. and 5% CO2 for 3 hours. The MTT solution in use was prepared by dissolving thiazolyl blue tetrazolium bromide in a mixture containing equal volumes of 2×MEM and sterile water (10 mg/ml) and sterilizing the resulting mixture by filtration (prepared before use). (6) The culture solution was removed from the plate, and isopropyl alcohol in a volume of 100 μl was added to the plate, and the plate was subject to shaking at room temperature for about 5 minutes. (7) The absorbance at 570 nm was measured, and the relative absorbance was calculated as a percentage with respect to the absorbance in the well of 0 mM treatment.

Vero cells = experiment: MTT assay, cell toxicity in non-infected cells; type: cell-based
Protocol: as §3

[6] = tested on: Zika virus PRVABC59 strain (ZKV); experiment: Inhibitory effect on Zika virus replication in Vero cells; type: cell-based
Protocol: as §1, §2

dengue virus = conditions: Non-Patent Literatures 9 to 11; cited from earlier work
Zika virus = conditions: Non-Patent Literatures 7 and 8, cited from earlier work
[7] = tested on: Japanese encephalitis virus; conditions: Non-Patent Literature 6; cited from earlier work

Compound: Cl.NCC(=O)CCC(=O)O [5-ALA, 5-aminolevulinic acid hydrochloride]
- concentration required for causing the cell toxicity (flavivirus; higher than 0.8 mM not examined): at least 0.8 mM
- concentration at which anti-flavivirus activity is confirmed (flavivirus; summary of Examples): ≥ 0.2 mM
- inhibitory effect on dengue virus type-4 replication on Day 8 ([1]; 0.2 mM, Day 8): decreased
- inhibitory effect on dengue virus type-4 ([1]; 0.2 mM, treatment for 7 days after infection, FIG. 24): exhibited up to Day 7
- inhibitory effect on Japanese encephalitis virus replication ([2]; 0.05 mM, treatment for 7 days after infection, FIG. 7): exhibited
- inhibitory effect on Japanese encephalitis virus replication ([2]; 0.2 mM, treatment for 2 days after infection, FIG. 11): exhibited
- inhibitory effect on Japanese encephalitis virus replication ([2]; 0.2 mM, treatment for 4 days after infection, FIG. 10): exhibited
- inhibitory effect on Japanese encephalitis virus replication ([2]; 0.2 mM, treatment for 7 days after infection, FIG. 7): exhibited
- inhibitory effect on Japanese encephalitis virus replication, 5-ALA compared with low dose lucidone ([2]; 5-ALA 0.2 mM vs lucidone 10 μM and 2.5 μM, 7 days after infection, FIG. 20): stronger inhibitory effect on the Japanese encephalitis virus replication than 10 μM and 2.5 μM of lucidone
- inhibitory effect on Japanese encephalitis virus replication compared with ribavirin ([2]; 5-ALA 0.2 mM vs ribavirin 300 μM, 7 days after infection, FIG. 7): stronger than the effect of ribavirin (300 μM)
- duration of inhibitory effect on Japanese encephalitis virus after removal, compared with dengue virus ([2]; 1 day treatment after infection, vs Example 4): lasted longer than in the case of the dengue virus
- inhibitory effect on Japanese encephalitis virus replication, treatment for 4 days and 2 days compared with 7 days ([2]; FIG. 7, FIG. 10, FIG. 11): less inhibitory effect
- inhibitory effect on Japanese encephalitis virus replication when the agent was removed from the culture solution ([2]; after removal of the agent): lost with the lapse of time
- appearance of virus resistant to the agent ([2]; continuous treatment 7 days, compared with ribavirin, FIG. 7): delays the appearance of the virus resistant to the agent more than ribavirin
- dose-dependent inhibitory effect on Japanese encephalitis virus replication ([2]; treatment after infection for 1 day (Day 2), 0.05 mM to 1 mM, FIG. 5): exhibited the dose-dependent inhibitory effect
- inhibitory effect on dengue virus type-1 ([3]; 0.2 mM, treatment for 7 days after infection, FIG. 22): exhibited up to Day 9
- inhibitory effect on dengue virus type-1 replication compared with ribavirin ([3]; 5-ALA 0.2 mM vs ribavirin 300 μM, FIG. 22): stronger than the effect of ribavirin (300 μM)
- inhibitory effect on dengue virus type-1 when the agent was removed from the culture solution ([3]; after removal of the agent): lost with the lapse of time
- inhibitory effect on dengue virus type-3 replication on Day 8 ([4]; 0.2 mM, Day 8): decreased
- inhibitory effect on dengue virus type-3 ([4]; 0.2 mM, treatment for 7 days after infection, FIG. 23): exhibited up to Day 7
- inhibitory effect on dengue virus type-3 replication compared with ribavirin ([4]; 5-ALA 0.2 mM vs ribavirin 300 μM, FIG. 23): stronger than the effect of ribavirin (300 μM)
- heme oxygenase-1 (HO-1) in cells (heme oxygenase-1 (HO-1)): induces expression of HO-1
- CC50 at 7 days [5]: > 800 µM
- cell toxicity (Vero cells; non-infected cells, 5-ALA solution for 2, 4 or 7 days, up to 0.8 mM, FIGS. 12-14): observed in the non-infected cells in a dose-dependent manner
- inhibitory effect after Day 9 ([6]; 0.2 mM, after Day 9): decreased
- inhibitory effect on Zika virus ([6]; 0.2 mM, treatment for 7 days after infection, FIG. 25): exhibited up to Day 8
- inhibitory effect on Zika virus replication compared with ribavirin ([6]; 5-ALA 0.2 mM vs ribavirin 300 μM, FIG. 25): stronger than the effect of ribavirin (300 μM) on Day 5, Day 6, and Day 8

Compound: COC1=CC(=O)C(=C(O)/C=C/c2ccccc2)C1=O [lucidone, reference compound]
- concentration at which anti-flavivirus activity is confirmed (flavivirus; summary of Examples): 0.04 mM
- concentration at which cell toxicity is confirmed (flavivirus; summary of Examples): 40 µM
- inhibitory effect on Japanese encephalitis virus replication, lucidone compared with 5-ALA ([2]; lucidone 40 μM vs 5-ALA 0.2 mM, 7 days after infection, FIG. 17): stronger inhibitory effect on the Japanese encephalitis virus replication than 0.2 mM 5-ALA
- heme oxygenase-1 (HO-1) in cells (heme oxygenase-1 (HO-1)): increases HO-1 in cells
- cell toxicity at 40 μM (Vero cells; cells not infected with the flavivirus, 40 μM, 7 days): did not cause the cell toxicity
- cell toxicity (Vero cells; non-infected cells, lucidone for 7 days, up to 160 μM, FIG. 15): observed in a dose-dependent manner
- CC50 (Vero cells; non-infected cells, treatment for 7 days, read-out: CC50 (concentration at which cell toxicity is caused to 50% of cells)): > 60 µM
- replication of dengue virus (dengue virus): suppress replication

Compound: O=C(Nc1ccc([N+](=O)[O-])cc1Cl)c1cc(Cl)ccc1O [niclosamide]
- replication of Zika virus (Zika virus): suppress replication

Compound: CC(=O)Oc1ccccc1C(=O)Nc1ncc([N+](=O)[O-])s1 [nitazoxanide]
- replication of Japanese encephalitis virus [7]: suppress replication

Compound: NC(=O)c1ncn([C@@H]2O[C@H](CO)[C@@H](O)[C@H]2O)n1 [ribavirin, reference compound]
- inhibitory effect on dengue virus type-4 replication under continuous treatment ([1]; ribavirin 300 μM): reduction in the inhibitory effect
- inhibitory effect on dengue virus type-4 replication, ribavirin compared with 5-ALA ([1]; ribavirin 300 μM vs 5-ALA 0.2 mM, FIG. 24): stronger than the inhibitory effect on the dengue virus replication by treatment with 5-ALA (0.2 mM)
- inhibitory effect on dengue virus type-3 replication under continuous treatment ([4]; ribavirin 300 μM, from Day 7): reduction in the inhibitory effect
- replication of dengue virus (dengue virus): suppress replication
- inhibitory effect on Zika virus replication under continuous treatment ([6]; ribavirin 300 μM): reduction in the inhibitory effect

Compound: Hemin
- replication of Zika virus (Zika virus): suppress replication of Zika virus in vitro
- replication of Zika virus (Zika virus; listed as hemin): reduces replication of Zika virus in vitro

— patent US20220193124A1, “Therapeutic Agent for Flavivirus Infection” (NEOPHARMA JAPAN CO., LTD., priority 2019, published 2022)
